# Results from patent US20260049077A1, “Neurotrophic Receptor Tyrosine Kinase (NTRK) Inhibitors and Methods Using Same” (Baylor College of Medicine, priority 2022, published 2026).
# “And” between values parts separate entries of the source, which are not always exact repeats. Identical values can stand only once. “Also recorded” adds a separate entry of the source.
# Key:
# NTRK2 [1] = molecular target: T1, NTRK2 (Homo sapiens (Human), UniProt Q16620); assay: NTRK2 apparent inhibition constant (Ki app)
# T1 sequence (Q16620 32-822): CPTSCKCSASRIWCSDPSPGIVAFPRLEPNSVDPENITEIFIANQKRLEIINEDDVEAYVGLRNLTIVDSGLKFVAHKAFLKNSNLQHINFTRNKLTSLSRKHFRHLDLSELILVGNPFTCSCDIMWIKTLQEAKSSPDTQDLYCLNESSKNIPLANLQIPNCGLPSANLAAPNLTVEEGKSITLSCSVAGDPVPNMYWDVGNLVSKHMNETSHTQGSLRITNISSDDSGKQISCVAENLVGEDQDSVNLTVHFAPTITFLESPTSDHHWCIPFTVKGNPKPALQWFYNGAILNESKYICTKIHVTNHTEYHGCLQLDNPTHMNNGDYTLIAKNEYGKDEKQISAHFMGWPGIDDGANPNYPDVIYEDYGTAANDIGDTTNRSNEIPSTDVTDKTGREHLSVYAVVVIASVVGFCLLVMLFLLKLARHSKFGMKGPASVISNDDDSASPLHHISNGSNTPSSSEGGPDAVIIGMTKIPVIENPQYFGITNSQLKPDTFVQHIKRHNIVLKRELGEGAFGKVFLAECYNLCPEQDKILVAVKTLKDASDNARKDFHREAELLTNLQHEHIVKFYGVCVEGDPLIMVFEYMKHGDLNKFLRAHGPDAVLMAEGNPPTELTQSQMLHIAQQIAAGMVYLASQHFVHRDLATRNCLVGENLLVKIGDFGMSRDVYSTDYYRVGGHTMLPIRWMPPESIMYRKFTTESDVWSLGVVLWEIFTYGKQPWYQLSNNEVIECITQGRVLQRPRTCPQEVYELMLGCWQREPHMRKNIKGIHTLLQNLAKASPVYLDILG
# NTRK2 [2] = molecular target: T1, NTRK2; assay: NTRK2 inhibition (IC50); assay type: biochemical
# [3] = Metabolic stability in human liver microsomes (HLM)
# [4] = Metabolic stability in mouse liver microsomes (MLM)
# NTRK1 = NTRK1 (Homo sapiens (Human), UniProt P04629); assay: NTRK1 inhibition (IC50); details: read-out: NTRK1 IC50
# Chain of NTRK1 (P04629 33-796): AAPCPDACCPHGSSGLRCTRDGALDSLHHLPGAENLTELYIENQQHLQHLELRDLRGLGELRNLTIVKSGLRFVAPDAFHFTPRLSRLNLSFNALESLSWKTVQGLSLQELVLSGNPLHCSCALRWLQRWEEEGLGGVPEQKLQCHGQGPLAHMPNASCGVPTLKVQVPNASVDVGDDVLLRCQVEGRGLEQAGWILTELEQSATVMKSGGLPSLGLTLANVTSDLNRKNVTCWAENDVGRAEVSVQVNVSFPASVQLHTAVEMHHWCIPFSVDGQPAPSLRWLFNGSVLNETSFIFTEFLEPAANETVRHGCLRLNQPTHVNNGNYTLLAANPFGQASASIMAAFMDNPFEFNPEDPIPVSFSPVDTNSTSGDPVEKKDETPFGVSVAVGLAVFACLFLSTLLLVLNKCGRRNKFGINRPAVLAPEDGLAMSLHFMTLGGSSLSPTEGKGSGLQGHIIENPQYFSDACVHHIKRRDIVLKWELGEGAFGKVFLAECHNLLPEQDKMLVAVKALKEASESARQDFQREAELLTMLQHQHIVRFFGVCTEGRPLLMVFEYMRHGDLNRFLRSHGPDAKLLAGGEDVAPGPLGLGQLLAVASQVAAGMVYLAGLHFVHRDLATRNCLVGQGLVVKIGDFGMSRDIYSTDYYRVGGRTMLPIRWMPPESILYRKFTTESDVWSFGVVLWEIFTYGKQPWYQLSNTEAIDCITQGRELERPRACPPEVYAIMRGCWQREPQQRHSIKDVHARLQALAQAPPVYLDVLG
# NTRK2 [5] = molecular target: T1, NTRK2; assay: Promega NTRK2 NanoBRET live-cell target engagement; assay type: cell-based; details: live cells
# Description: FIGS. 6A-6B show the live-cell engagement (FIG. 6A) concept and an NTRK2 example (FIG. 6B). FIG. 6A: Depiction of Promega's NanoBRET target engagement system as per their website. The system involves cell-based competitive displacement of a fluorescent NanoBRET tracer bound reversibly to a NanoLuc fusion protein. Test compounds displace the tracer dependent on their affinity for the target and […] the NanoBRET signal. FIG. 6B: Example of the use of Promega's NTRK2 NanoBRET cell-based system. Each NTRK2 compound (Cpd) was assayed in kinase assays and in cells. Multiple NTRK2 compounds enter the cell and are potent nanomolar inhibitors in these assays (% normalized to no Cpd).
# As described elsewhere herein, hit compounds, including but not limited to CDD-2262, and its smaller analog, CDD-2330, were synthesized off-DNA and evaluated for NTRK2 activity.
# [6] = Brain uptake in mice 24 hours post-administration; assay type: in vivo, mouse; details: mouse, brain, 24 h, read-out: Brain Concentration at 24 h (ng/mg)
# NTRK3 = NTRK3 (Homo sapiens (Human), UniProt Q16288); assay: NTRK3 inhibition (IC50); details: read-out: NTRK3 IC50
# Chain of NTRK3 (Q16288 32-839): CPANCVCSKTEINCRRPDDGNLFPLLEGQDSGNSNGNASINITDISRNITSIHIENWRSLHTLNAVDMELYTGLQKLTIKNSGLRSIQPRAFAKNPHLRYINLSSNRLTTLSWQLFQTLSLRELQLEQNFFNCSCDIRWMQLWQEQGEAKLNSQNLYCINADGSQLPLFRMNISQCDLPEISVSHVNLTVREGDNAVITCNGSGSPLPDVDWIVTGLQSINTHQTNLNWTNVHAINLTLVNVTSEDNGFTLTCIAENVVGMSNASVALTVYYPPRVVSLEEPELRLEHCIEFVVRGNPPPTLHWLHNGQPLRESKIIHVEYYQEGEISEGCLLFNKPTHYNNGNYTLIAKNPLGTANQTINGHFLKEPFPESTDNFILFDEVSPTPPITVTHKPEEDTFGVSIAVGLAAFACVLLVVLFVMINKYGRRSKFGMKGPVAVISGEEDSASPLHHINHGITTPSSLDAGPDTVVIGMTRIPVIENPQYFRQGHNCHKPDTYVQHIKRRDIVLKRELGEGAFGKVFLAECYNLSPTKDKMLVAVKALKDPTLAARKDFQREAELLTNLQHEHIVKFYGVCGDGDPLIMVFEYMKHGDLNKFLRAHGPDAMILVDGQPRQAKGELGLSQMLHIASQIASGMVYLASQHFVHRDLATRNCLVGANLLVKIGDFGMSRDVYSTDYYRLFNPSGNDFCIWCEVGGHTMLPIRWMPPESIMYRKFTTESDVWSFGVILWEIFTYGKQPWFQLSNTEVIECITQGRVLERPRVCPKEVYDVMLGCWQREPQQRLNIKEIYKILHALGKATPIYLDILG
# endometriotic lesions = assay: Endometriosis mouse model, lesion efficacy; assay type: in vivo; details: for number, volume and mass of lesions / endometriotic lesion growth: 10 mg/kg; for number, volume and mass of lesions: compared to vehicle control; for endometriotic lesion growth: excised lesions
# Description: FIGS. 17A-17F depict the robust efficacy of the inhibitory compounds of the present disclosure as NTRK2 inhibitors for inhibition of endometriotic lesion growth in mice utilizing CDD-3132 as an example. FIG. 17A provides a schematic overview of the experiment performed. FIGS. 17B-17C provide photographs showing excised lesions with administration of a control (FIG. 17B) or CDD-3132 (10 mg/kg/day) (FIG. 17C).
# (§1) In one aspect, the present disclosure provides exemplary data relating to the administration of NTRK2 inhibitors in a mouse model of endometriosis (FIG. 14). In certain embodiments, the recipient mouse is administered the NTRK2 inhibitor and/or controls on day 14 after intraperitoneal injection of endometrium of the donor mouse. In certain embodiments, the recipient mouse is sacrificed and quantitatively assessed on day 28.
# [7] = Endometriosis mouse model, liver and kidney toxicity (organ weight, ALT, AST); assay type: in vivo; design: ALT (Mean ± SD) / AST (Mean ± SD): unit not given here; details: for ALT (Mean ± SD) / AST (Mean ± SD): i.p. dose of 10 mg/kg/day for 14 days
# Description: as §1
# [8] = in vivo; cited from earlier work
# [9] = group average, CDD-2737 at 10 mg/kg/day for 14 days, n-butyrate 100 mM
# [10] = individual mice, CDD-2737 at 10 mg/kg/day for 14 days, n-butyrate 100 mM
smiles,measurement,setting,value
"CCOc1ccc(CC(=O)N(Cc2ccn3nccc3c2)[C@H](C)c2ccccc2)cc1 [CDD-2222, (R)-2-(4-ethoxyphenyl)-N-(1-phenylethyl)-N-(pyrazolo[1,5-a]pyridin-5-ylmethyl)acetamide]",Ki,NTRK2 [1],34 ± 10 nM
same,IC50,NTRK2 [2],43 nM
"CC(C)N(Cc1ccn2nccc2c1)C(=O)Nc1ccc(OC(F)(F)F)cc1 [CDD-2299, 1-isopropyl-1-(pyrazolo[1,5-a]pyridin-5-ylmethyl)-3-(4-(trifluoromethoxy)phenyl)urea]",half-life,[3],0.718 h
same,half-life,[4],0.337 h
same,IC50,NTRK1,31 nM
same,IC50,NTRK2 [2],3.7 nM
same,cell penetration and effect in NanoBRET assays,NTRK2 [5],able to penetrate cell membranes to induce an effect
"CC(C)N(Cc1ccn2ncc(C(N)=O)c2c1)C(=O)Nc1ccc(OC(F)(F)F)cc1 [CDD-2737, 5-((1-isopropyl-3-(4-(trifluoromethoxy)phenyl)ureido)methyl)pyrazolo[1,5-a]pyridine-3-carboxamide]",concentration at 24 h,[6],40 ng/g
same,half-life,[3],3.17 h
same,half-life,[4],2.6 h
same,IC50,NTRK3,3.1 nM
same,IC50,NTRK1,6.1 nM
same,number and size of lesions,"endometriotic lesions; endometriosis mouse model, compared to controls",decreases the number of lesions and the size of lesions; also recorded: decreased number of lesions and lesions of diminished size
same,IC50,NTRK2 [2],2.3 nM
same,cell penetration and effect in NanoBRET assays,NTRK2 [5],able to penetrate cell membranes to induce an effect
same,gross and serum effects on the liver and kidney,[7]; endometriosis mouse model,no gross or serum effects; also recorded: no gross effects
same,"ALT (U/L), Average",[7]; [9],15.2 U/L
same,"AST (U/L), Average",[7]; [9],31.3 U/L
same,ALT (U/L),[7]; [10],13.79 U/L and 13.61 U/L and 10.25 U/L and 23.16 U/L
same,AST (U/L),[7]; [10],28.11 U/L and 47.21 U/L and 27.58 U/L and 22.28 U/L
"CC(C)c1ccc(OCC(=O)N(Cc2ccn3ncc(C(N)=O)c3c2)C(C)C)cc1 [CDD-3032, 5-((N-isopropyl-2-(4-isopropylphenoxy)acetamido)methyl)pyrazolo[1,5-a]pyridine-3-carboxamide]",half-life,[3],0.472 h
same,half-life,[4],0.105 h
same,IC50,NTRK3,13.7 nM
same,IC50,NTRK1,34 nM
same,IC50,NTRK2 [2],6.1 nM
same,cell penetration and effect in NanoBRET assays,NTRK2 [5],able to penetrate cell membranes to induce an effect
"CC(C)N(Cc1ccn2ncc(C(N)=O)c2c1)C(=S)Nc1ccc(OC(F)(F)F)cc1 [CDD-3119, 5-((1-isopropyl-3-(4-(trifluoromethoxy)phenyl)thioureido)methyl)pyrazolo[1,5-a]pyridine-3-carboxamide]",concentration at 24 h,[6],140 ng/g
same,half-life,[3],1.6 h
same,half-life,[4],4.83 h
same,IC50,NTRK3,6.6 nM
same,IC50,NTRK1,3.8 nM
same,"number, volume and mass of lesions",endometriotic lesions,"reduction of lesions, volume of lesions, and mass of lesions"
same,endometriotic lesion growth,endometriotic lesions,inhibiting endometriotic lesion growth
same,IC50,NTRK2 [2],3.6 nM
same,effect on liver and/or kidney weight and/or serum elevation of ALT and AST,"[7]; 10 mg/kg, mice with endometriotic lesions",little to no effect
same,ALT (Mean ± SD),[7],21.3 ± 4.9
same,AST (Mean ± SD),[7],53.2 ± 18.5
same,impact on liver and kidney weights,[7]; mice treated for 14 days,no significant impact
"CN1CCN(c2ccc(C(=O)Nc3n[nH]c4ccc(Cc5cc(F)cc(F)c5)cc34)c(NC3CCOCC3)c2)CC1 [Entrectinib, N-(5-(3,5-difluorobenzyl)-1H-indazol-3-yl)-4-(4-methylpiperazin-1-yl)-2-((tetrahydro-2H-pyran-4-yl)amino)benzamide]",blood-brain barrier crossing,[8],cross the blood-brain barrier
"CC(C)(CO)n1cc(C(=O)c2cncc(NC(=O)Cc3ccc(Cl)cn3)c2)c2cnc(N)nc21 [PF-06273340, N-[5-[[2-Amino-7-(2-hydroxy-1,1-dimethylethyl)-7H-pyrrolo[2,3-d]pyrimidin-5-yl]carbonyl]-3-pyridinyl]-5-chloro-2-pyridineacetamide, reference compound]",concentration at 24 h,[6],80 ng/g
same,half-life,[3],8.37 h
same,half-life,[4],3.37 h
same,"number, volume and mass of lesions",endometriotic lesions,"reduction of lesions, volume of lesions, and mass of lesions"
same,endometriotic lesion growth,endometriotic lesions,inhibiting endometriotic lesion growth
same,ALT (Mean ± SD),[7],15.1 ± 1.6
same,AST (Mean ± SD),[7],25.3 ± 7.1
O=C(Nc1cnn2ccc(N3CCC[C@@H]3c3cc(F)ccc3F)nc12)N1CC[C@H](O)C1 [larotrectinib],blood-brain barrier crossing,[8],cross the blood-brain barrier
